Source: PubChem BioAssay (NCI)
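48-hour exposure; five concentrations; linearly interpolated endpoints. At the GI50, growth is halved. Definition used: TGI = concentration required for complete inhibition of growth.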

Experiments:
Test in all cases: inhibition of tumour cell growth, NCI panel, 48 h
A549 NSCLC = tested on: A549 NSCLC
ACHN renal = tested on: ACHN renal
HT29 colon = tested on: HT29 colon
IGROV1 ovarian = tested on: IGROV1 ovarian
RXF 393 renal = tested on: RXF 393 renal
SF-295 CNS = tested on: SF-295 CNS
SF-539 CNS = tested on: SF-539 CNS
SK-MEL-2 melanoma = tested on: SK-MEL-2 melanoma
SW-620 colon = tested on: SW-620 colon
UACC-62 melanoma = tested on: UACC-62 melanoma

Structure (SMILES) | TGI (A549 NSCLC) [µM] | TGI (ACHN renal) [µM] | TGI (HT29 colon) [µM] | TGI (IGROV1 ovarian) [µM] | TGI (RXF 393 renal) [µM] | TGI (SF-295 CNS) [µM] | TGI (SF-539 CNS) [µM] | TGI (SK-MEL-2 melanoma) [µM] | TGI (SW-620 colon) [µM] | TGI (UACC-62 melanoma) [µM] | GI50 (UACC-62 melanoma) [µM] | GI50 (A549 NSCLC) [nM] | GI50 (ACHN renal) [nM] | GI50 (HT29 colon) [nM] | GI50 (IGROV1 ovarian) [nM] | GI50 (RXF 393 renal) [nM] | GI50 (SF-295 CNS) [nM] | GI50 (SF-539 CNS) [nM] | GI50 (SK-MEL-2 melanoma) [nM] | GI50 (SW-620 colon) [nM]
CCc1nc2c(c(N(C)C)c1C(=O)OC)CCc1ccccc1-2 | > 100 | > 100 | > 100 | > 100 | 73.8 | 50.9 | > 100 | 39.5 | > 100 | 40.4 |  |  |  |  |  |  |  |  |  | 
CC1=C(C)SC(=C2Sc3c(n(C)c(=O)n(C)c3=O)S2)S1 | > 100 | > 100 | > 100 | > 100 | > 100 | > 100 | 26.8 | 79.1 | > 100 | > 100 |  |  |  |  |  |  |  |  |  | 
COc1ccc(C2c3cc4c(cc3OC(Nc3ccccc3)C2C)OCO4)cc1 (stereo unspecified) | > 100 | > 100 | > 100 | > 100 | > 100 | > 100 | > 100 | > 100 | > 100 | > 100 |  |  |  |  |  |  |  |  |  | 
CC1(C)C=C(/C=C2/N(S(=O)(=O)C(F)(F)F)C(/C=C3/N(S(=O)(=O)C(F)(F)F)C(C)(C#N)CC3(C)C)=CC2(C)C)N=C1/C=C1/CC(C)(C)C(=O)N1 (stereo unspecified) | > 100 | > 100 | > 100 | 62.9 | 81.3 | > 100 | 84.5 | > 100 | > 100 | 69.1 |  |  |  |  |  |  |  |  |  | 
CC[C@]12C=CCN3CCC4(c5cc([C@@]6(C(=O)OC)CC7CN(CCc8c6[nH]c6ccccc86)CC6CCCCC67)c(OC)cc5N(C)C4[C@](O)(C(=O)OC)C1OC(C)=O)[C@@H]32 (stereo partly specified) | 12.6 | 11.6 | < 0.01 | 0.651 | 16.9 | 15.1 | < 0.01 | 0.145 | 15.6 | 1.7 |  |  |  |  |  |  |  |  |  | 
CC(=O)Oc1ccn2nc(C)c(Br)c2c1 | > 100 | > 100 | > 100 | > 100 | > 100 | > 100 | > 100 | > 100 | > 100 | > 100 |  |  |  |  |  |  |  |  |  | 
O=C1Nc2cc(F)ccc2C1=O | > 100 | > 100 | > 100 | > 100 | > 100 | > 100 | > 100 | > 100 | > 100 | > 100 |  |  |  |  |  |  |  |  |  | 
COC1(CC[C@H](C)COC2OC(CO)C(O)C(O)C2O)O[C@H]2C[C@H]3[C@@H]4CC=C5C[C@@H](OC6OC(CO)C(OC7OC(C)C(O)C(O)C7O)C(O)C6OC6OC(C)C(O)C(O)C6O)CC[C@]5(C)[C@H]4CC[C@]3(C)[C@H]2[C@@H]1C (stereo partly specified) | 4.28 | 29.4 | 6.8 | 20.1 | 18.4 | 13.6 | 4.05 | 13.6 | 6.78 | 21.6 | 6.95 |  |  |  |  |  |  |  |  | 
CSc1ncc2c(n1)-c1ccccc1OC2NC1CC1 (stereo unspecified) | > 100 | > 100 | > 100 | > 100 | > 100 | > 100 | > 100 | > 100 | > 100 | > 100 |  |  |  |  |  |  |  |  |  | 
CCOC(=O)/C=C/CCC(C)(C)COC(C)=O | > 10 | > 10 | > 10 | > 10 | > 10 | > 10 | > 10 | > 10 | > 10 | > 10 |  |  |  |  |  |  |  |  |  | 
CC1=NN2C(=N)/C(=C/c3ccc(F)cc3)C(=O)N=C2S1 | > 100 | > 100 | > 100 | > 100 | > 100 | > 100 | > 100 | > 100 | > 100 | > 100 |  |  |  |  |  |  |  |  |  | 
CCC1(CC)C(=O)N(C(=O)c2cc(OC)c(OC)c(OC)c2)N(C(=O)c2cc(OC)c(OC)c(OC)c2)C1=O | > 50 | > 50 | > 50 | > 50 | > 50 | > 50 | > 50 | > 50 | > 50 | > 50 |  |  |  |  |  |  |  |  |  | 
CC1(C)OCC(C2OC(C)(C)OC2[C@H]2O[C@@]3(O)[C@H]4[C@H](C=CC[C@@H]42)[C@@H](OCc2ccccc2)[C@H](OCc2ccccc2)[C@H]3OCc2ccccc2)O1 (stereo partly specified) | > 100 | > 100 | 71.3 | > 100 | 82.1 | > 100 | > 100 | 98.5 | > 100 | > 100 |  |  |  |  |  |  |  |  |  | 
O=C(NC(C(F)(F)F)(C(F)(F)F)P(=O)(Cc1ccccc1)Cc1ccccc1)C(C(F)(F)F)C(F)(F)F | 68.3 | 42.7 | 45.4 | 36.1 | 47.6 | 44.6 | 43.6 | 59.1 | 92.7 | 62.4 |  |  |  |  |  |  |  |  |  | 
CSc1nc(Cl)c2c(n1)Sc1nc3ccccc3n1C2O (stereo unspecified) | > 96.4 | > 100 | 25.4 | > 100 | 20.8 | > 100 | 3.8 | > 47.4 | 25.7 | > 100 |  |  |  |  |  |  |  |  |  | 
CC(C)(C)c1ccnc(N=C2N=C(Nc3cc(C(C)(C)C)ccn3)c3ccccc32)c1 | 62.3 | > 100 | 75 | 72.1 | 54.9 | 52 | > 100 | > 100 | > 100 | > 100 |  |  |  |  |  |  |  |  |  | 

Structure (SMILES) | TGI (A549 NSCLC) [µM] | TGI (ACHN renal) [µM] | TGI (HT29 colon) [µM] | TGI (IGROV1 ovarian) [µM] | TGI (RXF 393 renal) [µM] | TGI (SF-295 CNS) [µM] | TGI (SF-539 CNS) [µM] | TGI (SK-MEL-2 melanoma) [µM] | TGI (SW-620 colon) [µM] | TGI (UACC-62 melanoma) [µM] | GI50 (UACC-62 melanoma) [µM] | GI50 (A549 NSCLC) [nM] | GI50 (ACHN renal) [nM] | GI50 (HT29 colon) [nM] | GI50 (IGROV1 ovarian) [nM] | GI50 (RXF 393 renal) [nM] | GI50 (SF-295 CNS) [nM] | GI50 (SF-539 CNS) [nM] | GI50 (SK-MEL-2 melanoma) [nM] | GI50 (SW-620 colon) [nM]
N#C/C(C(=O)NCc1ccccc1)=C(/N)N1CCCC1 | > 100 | > 100 | > 100 | > 100 | > 100 | > 100 | > 100 | > 100 | > 100 | > 100 |  |  |  |  |  |  |  |  |  | 
C[As+](C)(c1ccc(Br)c([N+](=O)[O-])c1)c1ccc(Br)c([N+](=O)[O-])c1.O=[N+]([O-])O | > 100 | > 100 | > 100 | > 100 | > 100 | > 100 | > 100 | > 100 | > 100 | > 100 |  |  |  |  |  |  |  |  |  | 
CC1(C)N=C(N)N=C(N)N1c1cccc(Cl)c1 | > 100 | > 100 | > 100 | > 100 | > 100 | > 100 | > 100 | > 100 | > 100 | > 100 |  |  |  |  |  |  |  |  |  | 
c1ccc2c(c1)cc1ccc3cccc4ccc2c1c34 | > 100 | > 100 | > 100 | > 100 | > 100 | > 100 | > 100 | > 100 | > 100 | > 100 |  |  |  |  |  |  |  |  |  | 
CCOC(=O)c1csc(NC(=O)CCN2CCCC2)n1 | > 100 | > 100 | > 100 | > 100 | > 100 | > 100 | > 100 | > 100 | > 100 | > 100 |  |  |  |  |  |  |  |  |  | 
CN(C)CCCNC(=O)N/N=C/c1ccccc1 | > 100 | > 100 | > 100 | > 100 | > 100 | > 100 | > 100 | > 100 | > 100 | > 100 |  |  |  |  |  |  |  |  |  | 
CCN(CC)CCCCNc1c2ccc(Cl)cc2nc2ccc(OC)cc12 | 2.58 | 2.27 | 1.27 | 8.61 | 1.78 | 2.47 | 2.73 | 3.31 | 2.12 | 3.47 | 1.69 | 367 | 371 | 141 | 777 | 381 | 717 | 1190 | 1150 | 277
O=C1C=CC(=O)c2c(O)c(N3CCC[C@@H]3CO)c(Cl)c(O)c21 | 4.19 | 2.96 | 4.9 | 3.27 | 2.98 | 3.25 | 3.42 | 3.15 | 3.42 | 2.96 |  |  |  |  |  |  |  |  |  | 
CC1=C(C(=O)OCCO[N+](=O)[O-])C(c2ccccc2[N+](=O)[O-])C(C(=O)OC(C)C)=C(C)N1 (stereo unspecified) | 41.9 | 87.6 | 30.3 | 34.9 | 30.3 | 34.1 | 33.2 | 30.5 | 39.9 | 28.6 |  |  |  |  |  |  |  |  |  | 
N#CCCN(CCC#N)c1ccc(C(N=Nc2ccccc2)=Nc2ccc(F)cc2)cc1 | > 100 | > 100 | > 100 | > 100 | > 100 | > 100 | > 100 | > 100 | > 100 | > 100 |  |  |  |  |  |  |  |  |  | 
Clc1ccc(/C(=C/c2ccccc2)Cn2ccnc2)cc1 | > 100 | > 100 | > 100 | > 100 | 50.7 | > 100 | 80.9 | 40.8 | > 100 | > 100 |  |  |  |  |  |  |  |  |  | 
CC(C)=CCc1c(O)cc2oc(-c3ccc(O)cc3O)cc(=O)c2c1O | > 100 | 77 | 49.8 | > 100 | 64.8 | > 100 | 58.7 | 64.7 | > 100 | 34.6 |  |  |  |  |  |  |  |  |  | 
CCC1([N+](=O)[O-])CN(N=O)C1 | > 100 | > 100 | > 100 | > 100 | > 100 | > 100 | > 100 | > 100 | > 100 | > 100 |  |  |  |  |  |  |  |  |  | 
Cc1nc2c(=O)n(-c3ccccc3)c(=O)n(-c3ccccc3)c2o1 | > 100 | > 100 | > 100 | > 100 | > 100 | > 100 | > 100 | > 100 | > 100 | > 100 |  |  |  |  |  |  |  |  |  | 
COc1ccc(-c2cc3cc(Cl)cc(Cl)c3oc2=O)cc1OC | > 100 | > 100 | > 100 | > 100 | 75.8 | > 100 | > 100 | > 100 | > 100 | > 100 |  |  |  |  |  |  |  |  |  | 
Cc1c(C(=O)NNc2ccccc2)n2c(=S)[nH]nc2c2ccccc12 | > 100 | > 100 | > 100 | > 100 | > 100 | > 100 | > 100 | > 100 | > 100 | > 100 |  |  |  |  |  |  |  |  |  | 
